Reference: patent publication US8741944B2, “Anti-infective agents against intracellular pathogens” (priority 2007, dated 2014)

Assays:
[1] = system: HOP-62 (Non-Small Cell Lung Cancer); assay: NCI DTP tumor cell line screen (SRB), HOP-62
Procedure: (§1) For a typical screening experiment, cells are inoculated into 96 well microtiter plates in 100 μL at plating densities ranging from 5,000 to 40,000 cells/well depending on the doubling time of individual cell lines. After cell inoculation, the microtiter plates are incubated at 37° C., 5% CO2, 95% air and 100% relative humidity for 24 h prior to addition of experimental drugs.
(§2) After 24 h, two plates of each cell line are fixed in situ with TCA, to represent a measurement of the cell population for each cell line at the time of drug addition (Tz). Experimental drugs are solubilized in dimethyl sulfoxide at 400-fold the desired final maximum test concentration and stored frozen prior to use. At the time of drug addition, an aliquot of frozen concentrate is thawed and diluted to twice the desired final maximum test concentration with complete medium containing 50 μg/ml gentamicin. Additional four, 10-fold or ½ log serial dilutions are made to provide a total of five drug concentrations plus control. Aliquots of 100 μl of these different drug dilutions are added to the appropriate microtiter wells already containing 100 μl of medium, resulting in the required final drug concentrations.
(§3) Following drug addition, the plates are incubated for an additional 48 h at 37° C., 5% CO2, 95% air, and 100% relative humidity. For adherent cells, the assay is terminated by the addition of cold TCA. Cells are fixed in situ by the gentle addition of 50 μl of cold 50% (w/v) TCA (final concentration, 10% TCA) and incubated for 60 minutes at 4° C. The supernatant is discarded, and the plates are washed five times with tap water and air dried. Sulforhodamine B (SRB) solution (1001) at 0.4% (w/v) in 1% acetic acid is added to each well, and plates are incubated for 10 minutes at room temperature. After staining, unbound dye is removed by washing five times with 1% acetic acid and the plates are air dried. Bound stain is subsequently solubilized with 10 mM trizma base, and the absorbance is read on an automated plate reader at a wavelength of 515 nm. For suspension cells, the methodology is the same except that the assay is terminated by fixing settled cells at the bottom of the wells by gently adding 50 μl of 80% TCA (final concentration, 16% TCA). Using the seven absorbance measurements [time zero, (Tz), control growth, (C), and test growth in the presence of drug at the five concentration levels (Ti)], the percentage growth is calculated at each of the drug concentrations levels. Percentage growth inhibition is calculated as: [(Ti−Tz)/(C−Tz)]×100 for concentrations for which Ti>/=Tz [(Ti−Tz)/Tz]×100 for concentrations for which Ti<Tz
(§4) Three dose response parameters are calculated for each experimental agent. […] The drug concentration resulting in total growth inhibition (TGI) is calculated from Ti=Tz. […] Values are calculated for each of these three parameters if the level of activity is reached; however, if the effect is not reached or is exceeded, the value for that parameter is expressed as greater or less than the maximum or minimum concentration tested.

[2] = system: EKVX (Non-Small Cell Lung Cancer); assay: NCI DTP tumor cell line screen (SRB), EKVX
Procedure: as §1, §2, §3, §4

ACHN (Renal Cancer) = assay: NCI DTP tumor cell line screen (SRB), ACHN
Procedure: as §1, §2, §3, §4

SK-MEL-28 (Melanoma) = assay: NCI DTP tumor cell line screen (SRB), SK-MEL-28
Procedure: as §1, §2, §3, §4

786-0 (Renal Cancer) = assay: NCI DTP tumor cell line screen (SRB), 786-0
Procedure: as §1, §2, §3, §4

UO-31 (Renal Cancer) = assay: NCI DTP tumor cell line screen (SRB), UO-31
Procedure: as §1, §2, §3, §4

K-562 (Leukemia) = assay: NCI DTP tumor cell line screen (SRB), K-562
Procedure: as §1, §2, §3, §4

RXF 393 (Renal Cancer) = assay: NCI DTP tumor cell line screen (SRB), RXF 393; settings: RXF 393
Procedure: as §1, §2, §3, §4

For `NCC(=O)Nc1ccc(-n2nc(C(F)(F)F)cc2-c2ccc3c(ccc4ccccc43)c2)cc1` [Compound 70, 2-Amino-N-{4-[5-(2-phenanthrenyl)-3-(trifluoromethyl)-1H-pyrazol-1-yl]-phenyl}-acetamide], the “Mean Optical Densities” value ([1]; Log10 Concentration −4.0) was 0.217, the “Mean Optical Densities” value ([1]; Log10 Concentration −5.0) was 0.155 and the “Percent Growth” value ([1]; Log10 Concentration −5.0) was −70%. For the same compound, the “Mean Optical Densities” value ([1]; Log10 Concentration −6.0) was 1.075, the “Percent Growth” value ([1]; Log10 Concentration −6.0) was 64% and the “Mean Optical Densities” value ([1]; Log10 Concentration −7.0) was 1.330. The “Percent Growth” value ([1]; Log10 Concentration −7.0) was 93%, the “Mean Optical Densities” value ([1]; Log10 Concentration −8.0) was 1.310 and the “Percent Growth” value ([1]; Log10 Concentration −8.0) was 90%. The TGI [2] was 3.25E−06, the “Mean Optical Densities” value ([2]; Log10 Concentration −4.0) was 0.193 and the “Mean Optical Densities” value ([2]; Log10 Concentration −5.0) was 0.156. For the same compound, the “Percent Growth” value ([2]; Log10 Concentration −5.0) was −72%, the “Mean Optical Densities” value ([2]; Log10 Concentration −6.0) was 0.786 and the “Percent Growth” value ([2]; Log10 Concentration −6.0) was 75%. The “Mean Optical Densities” value ([2]; Log10 Concentration −7.0) was 0.860, the “Percent Growth” value ([2]; Log10 Concentration −7.0) was 100% and the “Mean Optical Densities” value ([2]; Log10 Concentration −8.0) was 0.891. For the same compound, the “Percent Growth” value ([2]; Log10 Concentration −8.0) was 110%, the TGI (ACHN (Renal Cancer)) was 3.45E−06 and the “Mean Optical Densities” value (ACHN (Renal Cancer); Log10 Concentration −4.0) was 0.313. The “Mean Optical Densities” value (ACHN (Renal Cancer); Log10 Concentration −5.0) was 0.150, the “Percent Growth” value (ACHN (Renal Cancer); Log10 Concentration −5.0) was −60% and the “Mean Optical Densities” value (ACHN (Renal Cancer); Log10 Concentration −6.0) was 0.829. The “Percent Growth” value (ACHN (Renal Cancer); Log10 Concentration −6.0) was 70%, the “Mean Optical Densities” value (ACHN (Renal Cancer); Log10 Concentration −7.0) was 1.037 and the “Percent Growth” value (ACHN (Renal Cancer); Log10 Concentration −7.0) was 102%. The “Mean Optical Densities” value (ACHN (Renal Cancer); Log10 Concentration −8.0) was 0.985, the “Percent Growth” value (ACHN (Renal Cancer); Log10 Concentration −8.0) was 94% and the TGI (SK-MEL-28 (Melanoma)) was 2.64E−06. The “Mean Optical Densities” value (SK-MEL-28 (Melanoma); Log10 Concentration −4.0) was 0.218, the “Mean Optical Densities” value (SK-MEL-28 (Melanoma); Log10 Concentration −5.0) was 0.071 and the “Percent Growth” value (SK-MEL-28 (Melanoma); Log10 Concentration −5.0) was −87%. The “Mean Optical Densities” value (SK-MEL-28 (Melanoma); Log10 Concentration −6.0) was 1.130, the “Percent Growth” value (SK-MEL-28 (Melanoma); Log10 Concentration −6.0) was 63% and the “Mean Optical Densities” value (SK-MEL-28 (Melanoma); Log10 Concentration −7.0) was 1.320. For the same compound, the “Percent Growth” value (SK-MEL-28 (Melanoma); Log10 Concentration −7.0) was 83%, the “Mean Optical Densities” value (SK-MEL-28 (Melanoma); Log10 Concentration −8.0) was 1.426 and the “Percent Growth” value (SK-MEL-28 (Melanoma); Log10 Concentration −8.0) was 94%. For the same compound, the TGI (786-0 (Renal Cancer)) was 2.85E−06, the “Mean Optical Densities” value (786-0 (Renal Cancer); Log10 Concentration −4.0) was 0.299 and the “Mean Optical Densities” value (786-0 (Renal Cancer); Log10 Concentration −5.0) was 0.181. The “Percent Growth” value (786-0 (Renal Cancer); Log10 Concentration −5.0) was −72%, the “Mean Optical Densities” value (786-0 (Renal Cancer); Log10 Concentration −6.0) was 1.440 and the “Percent Growth” value (786-0 (Renal Cancer); Log10 Concentration −6.0) was 60%. For the same compound, the “Mean Optical Densities” value (786-0 (Renal Cancer); Log10 Concentration −7.0) was 1.897, the “Percent Growth” value (786-0 (Renal Cancer); Log10 Concentration −7.0) was 95% and the “Mean Optical Densities” value (786-0 (Renal Cancer); Log10 Concentration −8.0) was 2.012. The “Percent Growth” value (786-0 (Renal Cancer); Log10 Concentration −8.0) was 104%, the TGI (UO-31 (Renal Cancer)) was 3.29E−06 and the “Mean Optical Densities” value (UO-31 (Renal Cancer); Log10 Concentration −4.0) was 0.285. For the same compound, the “Mean Optical Densities” value (UO-31 (Renal Cancer); Log10 Concentration −5.0) was 0.161, the “Percent Growth” value (UO-31 (Renal Cancer); Log10 Concentration −5.0) was −64% and the “Mean Optical Densities” value (UO-31 (Renal Cancer); Log10 Concentration −6.0) was 1.356. For the same compound, the “Percent Growth” value (UO-31 (Renal Cancer); Log10 Concentration −6.0) was 68%, the “Mean Optical Densities” value (UO-31 (Renal Cancer); Log10 Concentration −7.0) was 1.563 and the “Percent Growth” value (UO-31 (Renal Cancer); Log10 Concentration −7.0) was 84%. For the same compound, the “Mean Optical Densities” value (UO-31 (Renal Cancer); Log10 Concentration −8.0) was 1.572, the “Percent Growth” value (UO-31 (Renal Cancer); Log10 Concentration −8.0) was 84% and the TGI (K-562 (Leukemia)) was 3.34E−06. For the same compound, the “Mean Optical Densities” value (K-562 (Leukemia); Log10 Concentration −4.0) was 0.247, the “Mean Optical Densities” value (K-562 (Leukemia); Log10 Concentration −5.0) was 0.209 and the “Percent Growth” value (K-562 (Leukemia); Log10 Concentration −5.0) was −30%. For the same compound, the “Mean Optical Densities” value (K-562 (Leukemia); Log10 Concentration −6.0) was 0.681, the “Percent Growth” value (K-562 (Leukemia); Log10 Concentration −6.0) was 33% and the “Mean Optical Densities” value (K-562 (Leukemia); Log10 Concentration −7.0) was 1.022. The “Percent Growth” value (K-562 (Leukemia); Log10 Concentration −7.0) was 62%, the “Mean Optical Densities” value (K-562 (Leukemia); Log10 Concentration −8.0) was 1.435 and the “Percent Growth” value (K-562 (Leukemia); Log10 Concentration −8.0) was 97%. For the same compound, the “Mean Optical Densities” value (RXF 393 (Renal Cancer); Log10 Concentration −4.0) was 0.441, the “Mean Optical Densities” value (RXF 393 (Renal Cancer); Log10 Concentration −5.0) was 0.177 and the “Percent Growth” value (RXF 393 (Renal Cancer); Log10 Concentration −5.0) was −56%. The “Mean Optical Densities” value (RXF 393 (Renal Cancer); Log10 Concentration −6.0) was 0.628, the “Percent Growth” value (RXF 393 (Renal Cancer); Log10 Concentration −6.0) was 56% and the “Mean Optical Densities” value (RXF 393 (Renal Cancer); Log10 Concentration −7.0) was 0.700. For the same compound, the “Mean Optical Densities” value (RXF 393 (Renal Cancer); Log10 Concentration −8.0) was 0.766.
